# Experimental data: article PMC8557888, “Intracellular Accumulation of Novel and Clinically Used TB Drugs Potentiates Intracellular Synergy” (Microbiology Spectrum, 2021)
# Where “and” joins values, the source holds several entries; their conditions need not be identical. Identical values can stand only once. Like-named read-outs stand apart in the source and are kept apart here.
# What was measured:
# M. smegmatis = format: cell-based, Mycobacterium smegmatis
# M. tuberculosis H37Rv [1] = test: Intracellular efficacy (CFU plating) in M. tuberculosis-infected THP-1 cells; format: cell-based, Mycobacterium tuberculosis; details: M. tuberculosis H37Rv-infected THP-1 cells, 20× MIC, 96-h assay; for decrease in bacterial count from starting count: given as size of decrease; for change in bacterial count compared to starting bacterial count: signed value
# M. tuberculosis = test: Two-dimensional checkerboard synergy assay; format: cell-based, Mycobacterium tuberculosis; details: PhX1/WHN296 combination
# [2] = male, C57BL/6, mouse, in vivo, po, 10 mg/kg
# [3] = system: M. smegmatis-infected THP-1 cells
# M. tuberculosis H37Rv [4] = details: cited from earlier work
# THP-1 cells [5] = test: Intracellular accumulation in uninfected THP-1 cells (LC-MS/MS); details: 5 μg/ml of each compound, 48 h
# [6] = THP-1 cell viability during accumulation experiment (trypan blue); details: human
# [7] = PhX1 concentrations in murine plasma, epithelial lining fluid and alveolar macrophages (BAL procedure, LC-MS/MS); details: mice; for Kp / AUC / Cmax: male, C57BL/6, mouse, in vivo, 10 mg/kg; for AUC: 24 h
# THP-1 cells [8] = details: human, 5 μg/ml
# in vitro = details: human
# [9] = cited from earlier work
# [10] = cited from earlier work; remark: listed apart in the source
# [11] = system: M. tuberculosis-infected THP-1 cells; details: 20× MIC
# Method: An intracellular accumulation ratio, defined as the intracellular compound concentration divided by the extracellular concentration, was used in this study to allow comparison between compounds (Fig. 5B).
# The intracellular accumulation of the combination of PhX1 and WHN296 in the M. tuberculosis-infected THP-1 cell model was evaluated using quantitative LC-MS/MS at time points of 24, 48, 72, and 96 h (n = 3 for each time point). In this experiment, intracellular drug concentrations are reported in ng/ml to allow comparisons to be made with the minimum compound levels required to achieve synergy.
# THP-1 cells were grown in RPMI medium containing 10% FCS at 37°C in 5% CO2. Cells were seeded and differentiated according to the above protocol for 24 h using PMA. M. tuberculosis (H37RvMa) cells were grown to mid-log phase in 7H9 medium. THP-1 cells were infected at an MOI of 5. Following 3 h of infection, wells were washed with RPMI medium to remove extracellular bacteria and dead cells. RPMI medium containing a predetermined concentration of compound was added to each well in triplicate. The solution was allowed to equilibrate for 30 min. In addition, three wells were left without drug treatment (following M. tuberculosis infection) and served as untreated controls, while an additional three wells of THP-1 cells were left uninfected and were used as uninfected controls. Thereafter, at each time point, cells were washed with RPMI medium. This was followed by the addition of EDTA (5 mM), after which 5 min was allowed for the cells to detach. Trypan blue-stained cells were counted using the automated cell counter. The remaining supernatant (150 μl) was added directly to an Eppendorf tube containing chloroform/methanol (3:1, vol/vol) and 1 μg/ml of compound-specific internal standard (deuterated internal standard for known anti-TB compounds and carbamazepine for novel compounds). […] Samples were processed using quantitative LC-MS/MS assays. […] These were then used to construct calibration curves, which were subsequently used to quantitate the amount of analyte in each respective sample.
structure (smiles),measurement,setting,value
CCN(CC)c1ccc2nc3c4ccccc4/c(=N\c4ccccc4)cc-3oc2c1 [PhX1],change in M. smegmatis-associated green fluorescence,M. smegmatis,no significant change
same,decrease in bacterial count from starting count,M. tuberculosis H37Rv [1],0.8 log10CFU/ml
same,change in bacterial count compared to starting bacterial count,M. tuberculosis H37Rv [1],−0.8 log10CFU/ml
same,minimum value required to produce synergy (2D-synergy level),M. tuberculosis,153.1 ng/mL
same,time plasma concentration above M. tuberculosis MIC90,[2],approximately 6 h
same,intracellular accumulation compared among phenoxazines,[3],significantly higher than those of the majority of the other phenoxazines
same,time to steady state of accumulation,[3]; human,2 h
same,MIC90,M. tuberculosis H37Rv [4]; M. tuberculosis H37Rv in vitro,0.19 µM and 0.194 µM
same,increase in efficacy against in vitro M. tuberculosis over PhX6,M. tuberculosis H37Rv [4]; PhX1 vs PhX6,2 fold
same,MIC90,M. tuberculosis H37Rv [4]; line printed in Fig 2,0.089 µg/mL
same,Equilibrium level reached (intracellular concentration),THP-1 cells [5],"4,750 ± 127.2 ng/ml"
same,"viability at 48 h, 5 μg/ml",[6],92 ± 5.8%
same,Kp,[7]; ELFAUC/plasmaAUC,1.7
same,AUC,"[7]; po, AUC in epithelial lining fluid cells (alveolar macrophages), 10 mg/kg oral, ELF cells",5020 ng·h/mL
same,AUC,"[7]; po, AUC in epithelial lining fluid, 10 mg/kg oral, ELF",2090 ng·h/mL
same,AUC,"[7]; po, AUC in plasma, 10 mg/kg oral, plasma",1170 ng·h/mL
same,Cmax,"[7]; po, Cmax in epithelial lining fluid cells (alveolar macrophages), 10 mg/kg oral, ELF cells",895 ± 23 ng/mL
same,Cmax,"[7]; po, Cmax in epithelial lining fluid, 10 mg/kg oral, ELF",452 ± 22 ng/mL
same,Cmax,"[7]; po, Cmax in plasma, 10 mg/kg oral, plasma",200 ± 75 ng/mL
same,Kp,"[7]; po, ELF AUC relative to plasma, 10 mg/kg oral",~2
same,Kp,"[7]; po, ELF cell AUC relative to plasma, 10 mg/kg oral",~4
same,ELF cell AUC relative to epithelial lining fluid,[7]; 10 mg/kg oral,2 fold
same,time above MIC90 in epithelial lining fluid,"[7]; 10 mg/kg oral, ELF",8 h
same,log ratio of epithelial lining fluid to plasma concentration,[7]; single-point values such as Cmax,0.65
CO[C@H]1/C=C/O[C@@]2(C)Oc3c(C)c(O)c4c(O)c(c(/C=N/N5CCN(C)CC5)c(O)c4c3C2=O)NC(=O)/C(C)=C\C=C\[C@H](C)[C@H](O)[C@@H](C)[C@@H](O)[C@@H](C)[C@H](OC(C)=O)[C@@H]1C [rifampin],decrease in bacterial count from starting count,M. tuberculosis H37Rv [1],approximately 1.5 log10CFU/ml
same,change in bacterial count compared to starting bacterial count,M. tuberculosis H37Rv [1],−1.5 log10CFU/ml
same,Equilibrium level reached (intracellular concentration),THP-1 cells [8]; 48 h,"3,050 ± 62.9 ng/ml"
same,"viability at 48 h, 5 μg/ml",in vitro,89 ± 2.4%
same,log ratio ELF/plasma,[9]; in vivo,0.7
same,maximum concentration in epithelial lining fluid,"[10]; human, in vivo",approximately 2 μg/ml
CCc1cc(C(N)=S)ccn1 [ethionamide],log ratio ELF/plasma,[9]; in vivo,2.8
COc1c(N2C[C@@H]3CCCN[C@@H]3C2)c(F)cc2c(=O)c(C(=O)O)cn(C3CC3)c12 [moxifloxacin],decrease in bacterial count from starting count,M. tuberculosis H37Rv [1],approximately 0.5 log10CFU/ml
same,change in bacterial count compared to starting bacterial count,M. tuberculosis H37Rv [1],−0.5 log10CFU/ml
same,Equilibrium level reached (intracellular concentration),THP-1 cells [8]; 48 h,"3,374 ± 48.7 ng/ml"
same,intracellular accumulation ratio (intracellular/extracellular concentration),[11],5.4
same,"viability at 48 h, 5 μg/ml",in vitro,87 ± 2.7%
same,log ratio ELF/plasma,[9],1.5
same,Cmax in epithelial lining fluid,"[10]; human, in vivo",approximately 10 μg/ml
same,plasma Cmax,"[10]; human, in vivo",approximately 4 μg/ml
same,concentration in plasma at the 24-h time point,"[10]; once-off 400 mg oral dose, healthy volunteers",5000 ng/mL
CCCCCCCCCCOc1cc2c(=O)c(C(=O)NCCOCCO)cn(CC)c2cc1OCC [RMB041],decrease in bacterial count from starting count,M. tuberculosis H37Rv [1],0.1 log10CFU/ml
same,Equilibrium level reached (intracellular concentration),THP-1 cells [8]; 48 h,953.5 ± 28.2 ng/mL
same,intracellular accumulation ratio (intracellular/extracellular concentration),[11],0.25
same,MIC90,M. tuberculosis H37Rv [4]; M. tuberculosis H37Rv in vitro,1.61 µM
same,"viability at 48 h, 5 μg/ml",in vitro,97 ± 2.5%
COc1nc2ccc(Br)cc2cc1[C@@H](c1ccccc1)[C@@](O)(CCN(C)C)c1cccc2ccccc12 [bedaquiline],decrease in bacterial count from starting count,M. tuberculosis H37Rv [1],1.5 log10CFU/ml
same,change in bacterial count compared to starting bacterial count,M. tuberculosis H37Rv [1],−1.5 log10CFU/ml
same,time to reach equilibrium level / steady state,THP-1 cells [8],≤ 30 min
same,Equilibrium level reached (intracellular concentration),THP-1 cells [8]; 48 h,"4,410 ± 190.9 ng/ml"
same,equilibrium level (intracellular),THP-1 cells [8]; 48 h,greater than 4 μg/ml
same,intracellular accumulation ratio (intracellular/extracellular concentration),[11],5.5
same,"viability at 48 h, 5 μg/ml",in vitro,93 ± 4.9%
O=C(NN=C(c1ccccn1)c1ccccn1)c1ccncc1 [DPINH],Equilibrium level reached (intracellular concentration),THP-1 cells [5],"1,280 ± 113.1 ng/ml"
NC(=O)c1cnccn1 [pyrazinamide],log ratio ELF/plasma,[9]; in vivo,3.2
CC(C)=CCC/C(C)=C/CN1CCN([C@@H]2O[C@@H]3O[C@@]4(C)CC[C@H]5[C@H](C)CC[C@@H]([C@H]2C)[C@@]35OO4)CC1 [WHN296],Equilibrium level reached (intracellular concentration),THP-1 cells [8]; 48 h,613.5 ± 19.2 ng/mL
same,MIC90,M. tuberculosis H37Rv [4]; M. tuberculosis H37Rv in vitro,18 µM
same,"viability at 48 h, 5 μg/ml",in vitro,98 ± 1.2%
CCN(CC)c1ccc2nc3c4ccccc4c(=Nc4ccccn4)cc-3oc2c1 [PhX6],intracellular accumulation compared among phenoxazines,[3],only compound accumulating to higher levels
"C[C@H]1COc2c(N3CCN(C)CC3)c(F)cc3c(=O)c(C(=O)O)cn1c23 [Levofloxacin, levofloxacin]",Equilibrium level reached (intracellular concentration),THP-1 cells [8]; 48 h,860 ± 56.5 ng/mL
same,"viability at 48 h, 5 μg/ml",in vitro,95 ± 4.2%
CC(=O)NC[C@H]1CN(c2ccc(N3CCOCC3)c(F)c2)C(=O)O1 [linezolid],time to reach equilibrium level / steady state,THP-1 cells [8],≤ 15 min
same,Equilibrium level reached (intracellular concentration),THP-1 cells [8]; 48 h,770 ± 14.1 ng/mL
same,"viability at 48 h, 5 μg/ml",in vitro,92 ± 3.1%
same,log ratio ELF/plasma,[9],0.7
NNC(=O)c1ccncc1 [isoniazid],log ratio ELF/plasma,[9]; in vivo,1
